Assay results reported in patent US20240300893A1, “SMALL MOLECULE COMPOUNDS TARGETING SRSF6 PROTEIN AND THEIR PREPARATION METHODS AND APPLICATIONS” (CHINA PHARMACEUTICAL UNIVERSITY, priority 2021, published 2024).
Like-named read-outs stand apart in the source and are kept apart here.

Tests used:
[1] = tested on: SW620 cells; assay: Inhibitory effect on SW620 cells (cell survival rate at 48 h); assay type: cell-based; conditions: read-out: IC50, inhibitory effects on SW620 cells
Method: (§1) Compound I was prepared with the same concentration gradient for primary screening, and compounds with lower IC50 than indacaterol were screened for secondary screening with concentration gradients of 1, 2, 4, and 8 μM.
(§2) Both rounds of screening were performed on the colorectal cancer cell line SW620 with an initial cell number of 5000 cells per well, and the cell survival rate at 48 h was determined directly to determine the IC50 of the compound.
(§3) Cell viability=[(reading of experimental group−reading of blank group)/(reading of control group−reading of blank group)]×100%.

[2] = target: T1, SRSF6 protein (Homo sapiens, UniProt Q13247); assay: SRSF6 protein thermal shift assay; assay type: binding; conditions: for migration of SRSF6 protein compared with DMSO: in words
T1 sequence (Q13247 1-183): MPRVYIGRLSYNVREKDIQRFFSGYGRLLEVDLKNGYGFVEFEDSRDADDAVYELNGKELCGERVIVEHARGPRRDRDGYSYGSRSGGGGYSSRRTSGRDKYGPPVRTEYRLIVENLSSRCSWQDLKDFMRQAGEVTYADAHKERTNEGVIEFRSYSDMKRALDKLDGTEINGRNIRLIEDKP
Excerpt: SRSF proteins play an important role in the regulation of gene expression, including constitutive splicing, alternative splicing, mRNA nuclear export and translation. SRSF proteins can be divided into two groups according to the number of RRM domains. Among them, SRSF6 has RRM1 and RRM2 domains. The RRM1 domain contains conserved sequences of RNP-1 and RNP-2, which can bind to related mRNAs. However, the RRM2 domain contains the evolutionarily conserved SWQDLKD heptapeptide sequence. RRM1 and RRM2 domains play irreplaceable roles in the specific recognition of alternative splice sites. Overexpression of SRSF6 induced colorectal carcinogenesis by binding to cell adhesion factor ZO-1, while indacaterol was validated to inhibit tumor development. Therefore, RRM1 and RRM2 domains of SRSF6 were extracted and the binding ability of compound I1 to SRSF6 was investigated by protein thermal shift assay using LYW1 as a reference.
We used DMSO as the blank group, and 56.5 μM SRSF6 protein was added to the PCR tube with LYW1 and I1 at a concentration of 1:10, respectively. After TS dye was added in the dark, the thermal migration assay was performed.

[3] = tested on: HT29 cells; assay: Inhibitory effect on HT29 cells (cell survival rate at 48 h); assay type: cell-based, Human; conditions: HT29, procedures as for SW620, 48 h, read-out: IC50, inhibitory effects on HT29 cells
Method: as §1, §2, §3

[4] = tested on: RKO cells; assay: Inhibitory effect on RKO cells (cell survival rate at 48 h); assay type: cell-based, Human; conditions: procedures as for SW620, 48 h, read-out: IC50, inhibitory effects on RKO cells
Method: as §1, §2, §3

[5] = Homo sapiens, SW-620, 48 h, SW620, 5000 cells per well

Row | Compound | IC50 [1, 5] | IC50 ([3]; Homo sapiens, HT-29, 48 h) | IC50 ([4]; Homo sapiens, 48 h) | further results
1 | CCc1cc2c(cc1CC)CC(NC[C@@H](O)c1ccc(OCc3ccc(F)cc3)c3[nH]c(=O)ccc13)C2 [Compound I1, (S)-5-(2-((5,6-diethyl-2,3-dihydro-1H-inden-2-yl)amino)-1-hydroxyethyl)-8-((4-fluorobenzyl)oxy)quinolin-2(1H)-one] |  |  |  | IC50 ([1]; Homo sapiens, SW-620, SW620, 5000 cells per well): 3.12 µM; binding effect with SRSF6 protein ([2]; compared with LYW1, in words): better binding effect; migration of SRSF6 protein compared with DMSO [2]: negative migration; IC50 ([3]; Homo sapiens, HT-29): 1.42 µM; IC50 ([4]; Homo sapiens): 1.42 µM
2 | CCc1cc2c(cc1CC)CC(NC[C@H](O)c1ccc(OCc3ccc(F)cc3)c3[nH]c(=O)ccc13)C2 [Compound I2, (R)-5-(2-((5,6-diethyl-2,3-dihydro-1H-inden-2-yl)amino)-1-hydroxyethyl)-8-((4-fluorobenzyl)oxy)quinolin-2(1H)-one] | 8.62 µM | 4.69 µM | 5.56 µM | 
3 | CCc1cc2c(cc1CC)CC(NC[C@@H](O)c1ccc(OCc3ccc(C)cc3)c3[nH]c(=O)ccc13)C2 [Compound I4, (S)-5-(2-((5,6-diethyl-2,3-dihydro-1H-inden-2-yl)amino)-1-hydroxyethyl)-8-((4-methylbenzyl)oxy)quinolin-2(1H)-one] | 2.9 µM |  |  | 
4 | CCc1cc2c(cc1CC)CC(NC[C@H](O)c1ccc(OCc3ccc(C)cc3)c3[nH]c(=O)ccc13)C2 [Compound I5, (R)-5-(2-((5,6-diethyl-2,3-dihydro-1H-inden-2-yl)amino)-1-hydroxyethyl)-8-((4-methylbenzyl)oxy)quinolin-2(1H)-one] | 2.98 µM |  |  | 
5 | CCc1cc2c(cc1CC)CC(NC[C@@H](O)c1ccc(OCc3cccc(F)c3)c3[nH]c(=O)ccc13)C2 [Compound I6, (S)-5-(2-((5,6-diethyl-2,3-dihydro-1H-inden-2-yl)amino)-1-hydroxyethyl)-8-((3-fluorobenzyl)oxy)quinolin-2(1H)-one] | 3.06 µM |  |  | 
6 | CCc1cc2c(cc1CC)CC(NC[C@H](O)c1ccc(OCc3cccc(F)c3)c3[nH]c(=O)ccc13)C2 [Compound I7, (R)-5-(2-((5,6-diethyl-2,3-dihydro-1H-inden-2-yl)amino)-1-hydroxyethyl)-8-((3-fluorobenzyl)oxy)quinolin-2(1H)-one] | 2.73 µM | 2.66 µM | 3.11 µM | 
7 | CCc1cc2c(cc1CC)CC(NC[C@@H](O)c1ccc(OCc3cc(F)cc(F)c3)c3[nH]c(=O)ccc13)C2 [Compound I9, (S)-5-(2-((5,6-diethyl-2,3-dihydro-1H-inden-2-yl)amino)-1-hydroxyethyl)-8-((3,5-difluorobenzyl)oxy)quinolin-2(1H)-one] | 3.15 µM |  |  | 
8 | CCc1cc2c(cc1CC)CC(NC[C@@H](O)c1ccc(OCc3ccc(F)c(F)c3)c3[nH]c(=O)ccc13)C2 [Compound I10, (S)-5-(2-((5,6-diethyl-2,3-dihydro-1H-inden-2-yl)amino)-1-hydroxyethyl)-8-((3,4-difluorobenzyl)oxy)quinolin-2(1H)-one] | 4.18 µM |  |  | 
9 | CCc1cc2c(cc1CC)CC(NC[C@@H](O)c1ccc(OCc3c(F)c(F)c(F)c(F)c3F)c3[nH]c(=O)ccc13)C2 [Compound I11, (S)-5-(2-((5,6-diethyl-2,3-dihydro-1H-inden-2-yl)amino)-1-hydroxyethyl)-8-((perfluorophenyl)methoxy)quinolin-2(1H)-one] | 6.09 µM |  |  | 
10 | CCc1cc2c(cc1CC)CC(NC[C@H](O)c1ccc(O)c3[nH]c(=O)ccc13)C2 [Indacaterol, reference compound] | 20 to 25 µM | 10 to 15 µM | 10 to 15 µM | IC50 ([1]; SW620, 5000 cells per well): 23.1 µM; IC50 [3]: 12.7 µM; IC50 [4]: 12.8 µM
11 | CCc1cc2c(cc1CC)CC(NC[C@H](O)c1ccc(OCc3ccccc3)c3[nH]c(=O)ccc13)C2 [LYW1, reference compound] | 3.54 µM | 2.43 µM | 2.03 µM | migration of SRSF6 protein compared with DMSO [2]: negative migration
